The test deals with T1, human glucocorticoid receptor (Homo sapiens, UniProt P04150).
T1 construct: purified human recombinant full-length glucocorticoid receptor (2 nM); purchased Invitrogen Part #2893
T1 sequence (P04150 1-777): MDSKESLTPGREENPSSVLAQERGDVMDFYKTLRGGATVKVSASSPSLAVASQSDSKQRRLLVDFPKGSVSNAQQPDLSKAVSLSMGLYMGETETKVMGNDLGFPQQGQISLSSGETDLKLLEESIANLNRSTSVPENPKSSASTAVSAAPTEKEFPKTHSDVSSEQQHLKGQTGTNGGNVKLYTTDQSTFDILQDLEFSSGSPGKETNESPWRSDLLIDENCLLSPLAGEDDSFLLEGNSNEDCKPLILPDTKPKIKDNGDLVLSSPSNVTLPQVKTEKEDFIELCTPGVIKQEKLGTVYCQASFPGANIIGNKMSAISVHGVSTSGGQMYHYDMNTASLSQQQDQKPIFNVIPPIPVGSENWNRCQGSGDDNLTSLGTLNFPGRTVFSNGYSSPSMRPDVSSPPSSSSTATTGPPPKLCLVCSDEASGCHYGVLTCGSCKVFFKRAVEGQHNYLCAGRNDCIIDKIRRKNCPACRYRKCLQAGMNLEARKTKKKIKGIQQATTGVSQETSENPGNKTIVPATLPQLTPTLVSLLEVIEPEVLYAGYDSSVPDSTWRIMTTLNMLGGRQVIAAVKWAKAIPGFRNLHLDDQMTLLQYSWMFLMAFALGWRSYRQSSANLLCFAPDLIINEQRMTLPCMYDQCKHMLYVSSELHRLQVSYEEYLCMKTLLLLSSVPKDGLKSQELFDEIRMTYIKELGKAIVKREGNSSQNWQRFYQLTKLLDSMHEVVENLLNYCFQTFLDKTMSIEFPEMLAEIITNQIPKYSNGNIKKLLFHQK
Briefly: Glucocorticoid Receptor Binding Assay (I), fluorescence polarization competitor kit. As to conditions: purified human recombinant full-length GR, Fluormone GS Red, 2 h room temperature. As to the method: Briefly, purified human recombinant full-length glucocorticoid receptor (2 nM) was mixed with fluorescently labeled glucocorticoid (1 nM Fluormone GS Red) in the presence or absence of test compound. After two hours incubation at room temperature in the dark, the fluorescence polarization (FP) of the sample was measured. […] Test compounds were analyzed in the concentration range from 8.5E-05 μM to 5 μM.
Background: In fluorescence polarisation assays a small probe gives low polarisation when free and higher when bound to something large.

Where only a bound is given, the exact number is not on record here.

In general, Ki refers to a dissociation constant, usually derived from enzyme kinetics or from competition with a known ligand. Turning to `C[C@]12Cn3cnc(-c4ccc(F)cc4)c3C=C1CCC[C@@H]2C(=O)c1ccc(F)cc1` [Example 47], the Ki was determined as 878 nM.

As for `C[C@]12Cn3cnc(-c4ccc(F)cc4)c3C=C1CCC[C@@H]2[C@@H](O)c1ccc(F)cc1` [Example 49], the Ki turned out to be 35.3 nM.

With `C[C@]12Cn3cnc(-c4ccc(F)cc4)c3C=C1CCC[C@@H]2[C@H](O)c1ccc(F)cc1` [Example 50], the Ki was determined as 29.7 nM.

Turning to `C=CC[C@H](O)[C@H]1CCCC2=Cc3c(-c4ccc(F)cc4)ncn3C[C@@]21C` [Example 51], the Ki was 7.38 nM.

As to `C=CC[C@@H](O)[C@H]1CCCC2=Cc3c(-c4ccc(F)cc4)ncn3C[C@@]21C` [Example 52], the Ki came out at 8.67 nM.

Turning to `CC(C)C[C@@](C)(O)[C@H]1CCCC2=Cc3c(-c4ccc(F)cc4)ncn3C[C@@]21C` [Example 59], the Ki amounted to 9.67 nM.

`C[C@]12Cn3cnc(-c4ccc(F)cc4)c3C=C1CCC[C@@H]2[C@](C)(O)C#Cc1ccccc1` [Example 70]: the Ki worked out at 59.9 nM.

In the case of `C[C@]12Cn3cnc(-c4ccc(F)cc4)c3C=C1CCC[C@@H]2C(=O)c1ccccc1CN1CCCC1` [Example 72], the Ki was > 1150 nM.

On to `Cc1cccc(C)c1C(=O)[C@H]1CCCC2=Cc3c(-c4ccc(F)cc4)ncn3C[C@@]21C` [Example 76], for which the Ki was 207 nM.

Turning to `C[C@]12Cn3cnc(-c4ccc(F)cc4)c3C=C1CCC[C@@H]2[C@](C)(O)c1ccc(C#N)cc1` [Example 79], the Ki was determined as 3.42 nM.

Turning to `C[C@]12Cn3cnc(-c4ccc(F)cc4)c3C=C1CCC[C@@H]2[C@]1(C)OC(=N)c2ccccc21` [Example 84], the Ki was 201 nM.

Turning to `C[C@]12Cn3cnc(-c4ccc(F)cc4)c3C=C1CCC[C@@H]2[C@]1(C)OC(=O)c2ccccc21` [Example 85], the Ki worked out at 177 nM.

Turning to `C[C@]12Cn3cnc(-c4ccc(F)cc4)c3C=C1CCC[C@@H]2CC(=O)Nc1nccs1` [Example 86], the Ki was 67.1 nM.

In the case of `CC(C)(C)OC(=O)NCC[C@H]1CCCC2=Cc3c(-c4ccc(F)cc4)ncn3C[C@@]21C` [Example 88], the Ki is 11.4 nM.

`C[C@]12Cn3cnc(-c4ccc(F)cc4)c3C=C1CCC[C@@H]2[C@@H](O)C(F)(F)F` [Example 90]: the inhibitory constant (Ki) came to 103 nM.

On to `C[C@]12Cn3cnc(-c4ccc(F)cc4)c3C=C1CCC[C@@H]2[C@H](O)C(F)(F)F` [Example 91], for which the Ki was determined as 85.5 nM.

With `C[C@]12Cn3cnc(-c4ccc(F)cc4)c3C=C1CCC[C@@H]2C(=O)C1CCOCC1` [Example 94], the Ki came to 344 nM.

For the compound `CC(C)(O)c1ccc([C@@](C)(O)[C@H]2CCCC3=Cc4c(-c5ccc(F)cc5)ncn4C[C@@]32C)cc1` [Example 98], the Ki stood at 4.45 nM.

Regarding `C=CC1(O)CCCC2=Cc3c(-c4ccc(F)cc4)ncn3CC21C` (stereo not shown) [Example 101, 1-(4-Fluorophenyl)-5a-methyl-6-vinyl-5,5a,6,7,8,9-hexahydroimidazo[1,5-b]isoquinolin-6-ol], the Ki is 755 nM.
